According to US11857601B2, “Pharmaceutical composition for cancer treatment comprising fusion protein including IL-2 protein and CD80 protein and anticancer drug” (GI INNOVATION, INC., priority 2020, dated 2024):

What was measured:
4T1 cells [1] = test: mGI-101, anti-PD-L1 antibody and Docetaxel in 4T1 allotransplanted tumor model; type: in vivo, BALB/c mice
From the text: This experiment was to evaluate the anticancer efficacy according to administration of the test substance mGI-101 alone or in combination with Docetaxel (Selleck Chemicals, cat. no. S1148) and the anti-PD-L1 antibody (BioXcell, cat. no. BE0101) in a tumor model allotransplanted with 4T1 cells (mouse breast cancer cells) into BALB/c mice.
4T1 cells were purchased from ATCC (USA) and cultured in RPMI1640 medium (Gibco) containing 10% FBS (Gibco) and 1% antibiotic/antifungal agent (Gibco). The cultured cells were harvested using trypsin (Gibco), and then a cell suspension was prepare with PBS and stored on ice until injected into mice. In order to establish an allotransplanted tumor model, after identifying the location of the second mammary fat pad from the upper right of the ventral region of BALB/c female mice (8-week-old), 4T1 cell line prepared inside the mammary fat pad was injected at 4×10^4 cells/40 μl/head.
A certain period of time after cell inoculation of the tumor grafts of the mice, the tumor volume was measured for animals with no abnormalities in the health condition of the animals, and the subjects were selected so that the average of each group reached less than 70-100 mm^3, and the selected animals were assigned as evenly as possible based on tumor volume and body weight, each group including 10 animals.
Docetaxel was dissolved in 100% DMSO, and then the volume was adjusted with 5% of DMSO, 30% of PEG300, 5% of Tween 80, and 60% of distilled water for injection (DMSO PEG300: Tween 80: distilled water for injection=5%: 30%: 5%: 60% (v:v:v:v)) and prepared.
The Anti-PD-L1 antibody was prepared and administered using 1×PBS in consideration of dosage amount and volume. […]
The tumor volume before administration of each subject was set as the value measured at the time of grouping, and the anti-tumor efficacy was evaluated as compared with the vehicle control. […]

4T1 cells [2] = test: mGI-101 and Abemaciclib in 4T1 allotransplanted tumor model; type: in vivo, BALB/c mice; settings: 11 mice per group
Description: 4T1 cells were purchased from ATCC (USA) and cultured in RPMI1640 medium (Gibco) containing 10% FBS (Gibco) and 1% antibiotic/antifungal agent (Gibco). The cultured cells were harvested using trypsin (Gibco) and then suspended in PBS. In order to establish an allotransplanted tumor model, 1×10^5 of 4T1 cells were subcutaneously injected into the back of BALB/c female mice (8-week-old).
A certain period of time after cell inoculation of the tumor grafts of the mice, the tumor volume was measured for animals with no abnormalities in the health condition of the animals, and the mice were randomly selected and assigned, each group including 11 mice.
The death of the mouse, the type of general symptoms, the date of onset, and the severity of symptoms were observed once a day during the test period, and recorded for each subject.
The tumor volume before administration of each subject was set as the value measured at the time of grouping, and the anti-tumor efficacy was evaluated as compared with the vehicle control.
All statistical calculations were performed using Prism 8.0 (Graph Pad Software Inc, USA). The comparison of tumor volume measurements was made through two-way analysis of variance followed by Tukey's multiple comparison test. A p value of less than 0.05 was considered significant.

HCT116 cells = test: Cancer cell killing, GI-101 and Pertuzumab, HCT116 with NK cells; type: cell-based, human; settings: GI-101 0.4-100 nM, Pertuzumab 16.9 nM, 24 hours
From the text: This experiment was to evaluate the effect of killing cancer cells by treating HCT116 cells (human colon cancer cells) with the test substance GI-101 alone or in combination with Pertuzumab substance in an in vitro environment.
HCT116 cells were purchased from the Korea cell line bank and cultured in McCoy's 5A medium (ATCC) containing 10% FBS (Gibco) and 1% antibiotic/antifungal agent (Gibco). For use in cancer cell killing test, the cells were harvested using trypsin (Gibco), and then suspended in McCoy's 5A medium, and then dead cells and debris were removed using Ficoll (GE Healthcare Life Sciences) solution. The cells suspended in McCoy's 5A medium were carefully layered on ficoll solution. […]
(§1) In order to identify the effect of killing the cells, a CytoTox Green reagent ([…]™ CytoTox Green, Satorius) that binds to the DNA of cells to be killed was prepared in 1 μl per 1 mL of RPMI1640 medium containing 5% human AB serum (Sigma). The prepared medium was used for dilution of the test substance, and the effect of killing the cells could be quantitatively identified by staining the cells to be killed when the test substance was co-cultured with cancer cell lines and PBMCs. […]

MDA-MB-231 cells = test: Cancer cell killing, GI-101 and Ribociclib, MDA-MB-231 with PBMCs; type: cell-based, human; settings: GI-101 100 nM, Ribociclib 913 nM, 24 hours, compared with co-culturing only cancer cells and PBMCs
From the text: This experiment was to evaluate the effect of killing cancer cells by treating MDA-MB-231 cells (human breast cancer cells) with the test substance GI-101 alone or in combination with Ribociclib substance in an in vitro environment.
MDA-MB-231 cells were purchased from the Korea cell line bank and cultured in RPMI1640 medium (Gibco) containing 10% FBS (Gibco) and 1% antibiotic/antifungal agent (Gibco). For use in cancer cell killing test, the cells were harvested using trypsin (Gibco), and then suspended in RPMI1640 medium, and then dead cells and debris were removed using Ficoll (GE Healthcare Life Sciences) solution. The cells suspended in RPMI1640 medium were carefully layered on ficoll solution. […]
as §1

[3] = system: CD8+ T cells and CD4+/FoxP3+ Treg cells; test: Proliferation of CD8+ T cells and Treg cells in PBMCs (Exp. Ex. 10); type: cell-based, human
Description: Human PBMCs were purchased from Allcells (Lot #3014928, USA). […] CellTrace CFSE dye was used, which was reacted with the human PBMCs under a light-blocking condition at […] for 20 minutes. The cells were labeled with CFSE by being reacted with 1 μM CellTrace CFSE dye at 37° C. for 20 minutes. CFSE not bound to the cells was removed by being reacted for 5 minutes with a culture medium having a 5-fold volume of the staining reaction solution and then by being centrifuged at 1,300 rpm for 5 minutes. The CFSE-labeled PBMCs were resuspended in the culture medium (RPMI1640 medium containing 10% fetal bovine serum, 10 mM HEPES, 100 U/ml penicillin/streptomycin, 1 mM sodium pyruvate, 55 μM 2-mercaptoethanol, 1 mM non-essential amino acid, and 2 mM L-glutamine), and then added to a 96-well microplate at 1×10^5 cells per well.
The incubated cells were examined for their degree of proliferation by measuring, with FACS analysis using anti-human CD4-PE antibody (BioLegend, USA), anti-human CD8-PE/Cy7 antibody (BioLegend, USA), and anti-human FoxP3-APC antibody (BioLegend, USA), a proportion of CD8+ T cells that had not been labeled with CFSE.

[4] = 4T1, end of the test, 10 animals per group

CC(=O)O[C@@]12CO[C@@H]1C[C@H](O)[C@@]1(C)C(=O)[C@H](O)C3=C(C)[C@@H](OC(=O)[C@H](O)[C@@H](NC(=O)OC(C)(C)C)c4ccccc4)C[C@@](O)([C@@H](OC(=O)c4ccccc4)[C@H]21)C3(C)C [Docetaxel]
number of mice with tumor growth inhibition rate of 30% or more (4T1 cells [1]; [4]): 5 mice | number of mice with tumor growth inhibition rate of 50% or more (4T1 cells [1]; [4]): 1 mice | anticancer effect (tumor size) compared with the control (4T1 cells [1]; day 14, Docetaxel 15 mg/kg, mGI-101 3 mg/kg, aPD-L1 10 mg/kg i.p. QW): statistically significant anticancer effect

CCN1CCN(Cc2ccc(Nc3ncc(F)c(-c4cc(F)c5nc(C)n(C(C)C)c5c4)n3)nc2)CC1 [Abemaciclib, reference compound]
number of mice with tumor growth inhibition rate of 30% or more (4T1 cells [2]): 4 mice | number of mice with tumor growth inhibition rate of 50% or more (4T1 cells [2]): 1 mice | number of mice with tumor growth inhibition rate of 80% or more (4T1 cells [2]): 1 mice

Pertuzumab: Her2 inhibitor [reference compound]
effect of killing cancer cells (HCT116 cells): effect of killing cancer cells was not shown

CN(C)C(=O)c1cc2cnc(Nc3ccc(N4CCNCC4)cn3)nc2n1C1CCCC1 [Ribociclib, reference compound]
effect of killing cancer cells (MDA-MB-231 cells): excellent effect of killing cancer cells

Proleukin: Proleukin (Novartis, hIL-2); human recombinant IL-2 [reference compound]
proportion of CD8+ T cells ([3]; anti-CD3ε 1 μg/ml, 7 days, compared with no stimulus, anti-CD3 antibody alone and GI101C1): significant increase | proliferation of CD4+/FoxP3+ Treg cells ([3]; compared with no stimulus and anti-CD3 antibody alone): significant increase
